# Measurements reported in PubChem BioAssay (NCI).
#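 Dose response: 5 concentrations. Exposure: 48 h. Format: 96-well plates. Endpoint: linear interpolation; highest concentration if not reached. TGI is the concentration that stops growth completely.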
# Legend:
# Test in all cases: inhibition of tumour cell growth, NCI panel, 48 h
# PC-3 prostate = tested on: PC-3 prostate
# BT-549 breast = tested on: BT-549 breast
# HT29 colon = tested on: HT29 colon
# T-47D breast = tested on: T-47D breast
# CAKI-1 renal = tested on: CAKI-1 renal
# SN12C renal = tested on: SN12C renal
# MDA-N = tested on: MDA-N
# TK-10 renal = tested on: TK-10 renal
# OVCAR-5 ovarian = tested on: OVCAR-5 ovarian
# OVCAR-3 ovarian = tested on: OVCAR-3 ovarian
# MALME-3M melanoma = tested on: MALME-3M melanoma
# MCF7 breast = tested on: MCF7 breast
# SK-MEL-2 melanoma = tested on: SK-MEL-2 melanoma
# HCT-116 colon = tested on: HCT-116 colon
# SK-MEL-5 melanoma = tested on: SK-MEL-5 melanoma
# LOX IMVI melanoma = tested on: LOX IMVI melanoma
SMILES,TGI (PC-3 prostate) [µM],TGI (BT-549 breast) [µM],TGI (HT29 colon) [µM],TGI (T-47D breast) [µM],TGI (CAKI-1 renal) [µM],TGI (SN12C renal) [µM],TGI (MDA-N) [µM],TGI (TK-10 renal) [µM],TGI (OVCAR-5 ovarian) [µM],TGI (OVCAR-3 ovarian) [µM],TGI (MALME-3M melanoma) [µM],TGI (MCF7 breast) [µM],TGI (SK-MEL-2 melanoma) [µM],TGI (HCT-116 colon) [µM],TGI (SK-MEL-5 melanoma) [µM],TGI (LOX IMVI melanoma) [µM]
COc1cc(C2SCC(=O)N2c2ccc(Cl)cc2)cc(I)c1O (stereo not given),> 100,> 100,> 100,> 100,> 100,> 100,> 100,> 100,> 100,> 100,> 100,> 100,> 100,> 100,> 100,> 100
O=C(N/N=C\c1ccc([N+](=O)[O-])cc1)Nc1cccc2ccccc12,> 71.4,23.4,> 100,> 47.6,33.1,> 100,> 100,63.6,> 100,> 100,> 82.5,> 80.9,23.9,> 52.2,> 100,> 62.2
O=C(N/N=C\c1ccc([N+](=O)[O-])cc1)c1ccccc1Nc1ccccc1C(=O)N/N=C/c1ccc([N+](=O)[O-])cc1,> 100,> 100,> 100,> 100,> 100,> 100,> 100,> 100,> 100,> 100,> 100,> 100,> 100,> 100,> 100,–
CN(C)CCNC1=CC(=O)c2c(O)ccc(O)c2C1=O,21.5,31,8.75,25.5,27.3,21.5,3.55,28,27.5,5.67,2.62,7.27,25.3,9.05,3.28,12.7
CC(=O)O[C@H]1CC[C@@]2(C)C(=CC[C@@H]3[C@@H]2CC[C@]2(C)c4c(cc(C#N)c(=N)n4C(C)=O)C[C@@H]32)C1,54.6,34.8,43.5,46.9,95.8,44.8,52.9,66.8,74.7,34.4,31.8,47.2,–,28.5,29.7,30.8
O=C(CN1CCOCC1)CC(O)(C(F)(F)F)C(F)(F)F,99.8,> 100,–,> 100,> 100,–,> 100,> 100,> 100,> 100,> 100,> 100,> 100,> 100,> 100,> 100
Cc1ccc(Nc2sc(C)cc2C#N)c([N+](=O)[O-])c1,> 100,> 100,–,> 100,> 100,> 100,> 100,–,> 100,> 100,> 100,> 100,–,> 100,–,–
O=c1c(O)c(-c2cc(O)c(O)cc2O)oc2cc(O)c(C3OC(CO)C(O)C(O)C3O)c(O)c12 (stereo not given),> 100,> 100,> 100,> 100,–,> 100,> 100,> 100,> 100,> 100,–,> 100,> 100,> 100,–,> 100
N#C[C@@]12CCCC(=O)[C@@H]1[C@H]1CCC[C@H]12,35.7,39.2,52.4,41.3,31.4,35.1,38.4,35.3,25.7,23.7,32.3,49.8,43.3,30.8,30.8,31
CN[C@@H](C)[C@H](OP(=O)(O)OC1[C@@H](O)[C@H](O)C(O)[C@H](O)[C@@H]1O)c1ccccc1 (stereo not given in full),> 100,> 100,> 100,> 100,> 100,> 100,> 100,> 100,> 100,> 100,> 100,> 100,> 100,> 100,> 100,–
Cc1ccc2cccc3c2c1CC1(C3=O)S(=O)(=O)OCCOS1(=O)=O,> 100,> 100,> 100,> 100,> 100,> 100,> 100,> 100,> 100,> 100,> 100,> 100,> 100,> 100,> 100,> 100
CC1=C(C(=O)Nc2ccccc2)C(c2ccc(C)o2)C(C#N)=C(SCc2ccccc2)N1 (stereo not given),> 100,> 100,> 100,> 100,> 100,> 100,> 92.9,> 100,> 100,> 100,> 100,> 100,> 100,> 100,> 100,> 100
O=C1OC(C2OC(=O)c3cc(O)c(O)c(O)c3-c3c(O)c(O)c4oc(=O)c5c(c(O)c(O)c6oc(=O)c3c4c65)-c3c(cc(O)c(O)c3O)C(=O)OCC2O)C2OC(=O)c3c(c(O)c(O)c(O)c3[C@H]2O)-c2c1cc(O)c(O)c2O (stereo not given in full),> 100,> 100,31.6,80.1,22.4,36.4,53.8,–,47.3,67.5,> 100,21.5,> 100,38.8,33.9,35.5
COc1ccc(-n2c3c(c4c(CN(C)C)c(O)ccc42)C(=O)c2ccccc2C3=O)cc1,37.1,35.9,6.3,6.99,34.5,7.15,21.2,36.8,17.1,30.8,27.1,24.9,45.8,3.98,5.67,7
